Kd data for one compound are collected here from article PMC5113665, “HF‐Free Boc Synthesis of Peptide Thioesters for Ligation and Cyclization” (Angewandte Chemie (International Ed. in English), 2016).

Non-standard residues stand in square brackets, D forms with d. Residues, ends and D or L forms follow the SMILES beside them. Phe(4-F) = N[C@@H](Cc1ccc(F)cc1)C(=O)O; d2Nal = N[C@H](Cc1ccc2ccccc2c1)C(=O)O; dNle = CCCC[C@@H](N)C(=O)O

The test has as its target T1, KRAS-GTPγS (Homo sapiens, UniProt P01116).
T1 construct: proteins (amino acids 1-185) were; GST (N, cleaved yes); made in house; host or cells: Escherichia coli BL21
Briefly: Microscale thermophoresis binding to labeled KRAS-GTPγS. Conditions: 25 °C, NT-647 labelled protein, GTPγS-loaded, average of three measurements, read-out: affinity for labeled KRAS-GTPγS. The text has this:
Cyclization in acetonitrile in the presence of an aqueous imidazole solution gave good results (Figure S23, SI). […] The binding was characterized by microscale thermophoresis studies (Figure 4 D).
VI. Biological analysis of Cyclorasin 9A5
Protein Expression and Purification material and methods:
Human wt-K-Ras and oncogenic K-Ras_G12V proteins (amino acids 1-185) were cloned in pGEX-6P-1 vector that encodes a glutathione S-transferase (GST) tag at the N-terminal of the expressed protein. The constructs were transformed in Escherichia coli BL21 cells – the cells were grown in Luria Broth (LB) media in the presence of 0.1 mg mL-1 ampicillin at 37 °C to an OD 700 then induced by the addition of 0.1 mM IPTG. The bacterial culture was then incubated overnight at 18 °C and harvested the second day by centrifugation. […]
Microscale thermophoresis (MST) measurements were performed using a NanoTemper Monolith™ NT.115 instrument (NanoTemper Technologies GmbH, München, Germany). […] Labeling levels (generally in the range 0.3-0.4 dye molecules per protein) were determined using calculated extinction coefficients and e647 = 250,000 M-1cm-1 for the dye concentration. […]
GTPγS (B) and K-Ras-G12V_ GDP (D). The Kd values for each interaction were calculated as an average of three measurements. […]
(In general: In MST a laser heats a spot of the sample, and binding alters the fluorescence response.)

T1 sequence (P01116 1-185 isoform P01116-2): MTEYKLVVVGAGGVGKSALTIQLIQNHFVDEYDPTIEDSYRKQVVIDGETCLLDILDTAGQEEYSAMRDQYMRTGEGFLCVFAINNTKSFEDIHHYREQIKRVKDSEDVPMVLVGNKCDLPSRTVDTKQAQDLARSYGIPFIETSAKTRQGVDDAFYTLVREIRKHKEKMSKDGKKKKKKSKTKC

For `CCCC[C@H]1NC(=O)[C@H](Cc2ccc(F)cc2)NC(=O)[C@H](CCCNC(=N)N)NC(=O)[C@@H](Cc2ccc3ccccc3c2)NC(=O)[C@H](CCCNC(=N)N)NC(=O)[C@H](CCCNC(=N)N)NC(=O)[C@H](CCCNC(=N)N)NC(=O)[C@@H](C)NC(=O)[C@H]([C@@H](C)O)NC(=O)[C@H](Cc2c[nH]c3ccccc23)NC(=O)[C@H](CCC(N)=O)NC1=O` [cyclorasin 9A5] (cyclo(WT[dA]RRR[d2Nal]R[Phe(4-F)][dNle]Q)), the Kd is 600 nM.
